Results taken from patent US20230212164A1, “ANNULATED 2-AMINO-3-CYANO THIOPHENES AND DERIVATIVES FOR THE TREATMENT OF CANCER” (BOEHRINGER INGELHEIM INTERNATIONAL GMBH, priority 2020, published 2023).

What was measured:
[1] = target: KRASG12-dependent Ba/F3 cells (Homo sapiens, UniProt P01116, G12C, cells depend on it); test: Ba/F3 cell model proliferation assay (AlamarBlue, 72 h); assay type: cell-based; settings: Ba/F3 cells transduced with KRASG12C, read-out: IC50 Ba/F3 KRASG12C
Protocol: Ba/F3 Cell Model Generation and Proliferation Assay
Plasmids containing KRASG12 mutants were obtained from GeneScript. To generate KRASG12-dependent Ba/F3 models, Ba/F3 cells were transduced with retroviruses containing vectors that harbor KRASG12 isoforms. Platinum-E cells (Cell Biolabs) were used for retrovirus packaging. Retrovirus was added to Ba/F3 cells. To ensure infection, 4 μg/mL polybrene was added and cells were spinfected. […] Cells with an infection efficiency of 10% to 20% were further cultivated and puromycin selection with 1 μg/mL was initiated. As a control, parental Ba/F3 cells were used to show selection status. Selection was considered successful when parental Ba/F3 cells cultures died. To evaluate the transforming potential of KRASG12 mutations, the growth medium was no longer supplemented with IL-3. Ba/F3 cells harboring the empty vector were used as a control. Approximately ten days before conducting the experiments, puromycin was left out.
All treatments were performed in technical duplicates. The assay is run using a fully automated robotic system. Treated cells were incubated for 72 h at 37° C. with 5% CO2.
AlamarBlue™ (ThermoFisher), a viability stain, was added and fluorescence measured in the PerkinElmer Envision HTS Multilabel Reader.

[2] = target: T1, protein-protein interaction between SOS1 and KRAS G12C (Homo sapiens, UniProt P01116, C118S/C51S/C80L/G12C); test: KRAS::SOS1 AlphaScreen binding assay
T1 construct: His6 (N)
T1 sequence (P01116 1-169 isoform P01116-2 G12C/C51S/C80L/C118S): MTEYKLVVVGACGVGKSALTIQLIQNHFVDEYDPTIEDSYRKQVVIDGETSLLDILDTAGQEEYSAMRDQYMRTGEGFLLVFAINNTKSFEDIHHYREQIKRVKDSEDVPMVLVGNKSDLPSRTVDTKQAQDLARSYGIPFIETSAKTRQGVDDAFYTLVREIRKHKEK

[3] = test system: pERK (Thr202/Tyr204) in NCI-H358_Cas9_SOS2 (SOS2 knocked); test: ERK phosphorylation assay 2 (AlphaLISA SureFire Ultra p-ERK1/2); settings: read-out: IC50 H358 pERK, ERK phosphorylation assay 2 (values marked with *)
Protocol: ERK Phosphorylation Assay
Low IC50 values in this assay setting are indicative of high potency of the compounds according to the invention.
GFP positive cells were collected and further expanded. These GFP-positive cell pools were single-cell diluted and SOS2 knock-out clones were identified via Western-blot and genomic DNA sequencing analysis.
Materials Used for the Assay:
AlphaLISA SureFire Ultra p-ERK1/2 (Thr202/Tyr204) Assay Kit (ALSU-PERK-A500)
Cells are seeded at 40,000 cells per well in /60 μL of RPMI with 10% FBS, non-essential amino acids, pyruvate and glutamax in Greiner TC 384 plates. The cells are incubated for 1 h at room temperature and then incubated overnight in an incubator at 37° C. and 5% CO2 in a humidified atmosphere. 60 nL compound solution (10 mM DMSO stock solution) is then added using a Labcyte Echo 550 device. After a 1 h incubation in the aforementioned incubator the medium is removed after centrifugation and the cells lysed by addition of 20 μL of 1.6-fold lysis buffer from the AlphaLISA SureFire Ultra pERK1/2 (Thr202/Tyr204) Assay Kit with added protease inhibitors, 100 nM trametinib+100 nM staurosporine. After 20 minutes of incubation at room temperature with shaking, 6 μL of each lysate sample is transferred to a 384-well Proxiplate and analyzed for pERK (Thr202/Tyr204) with the AlphaLISA SureFire Ultra pERK1/2 (Thr202/Tyr204) Assay Kit. 3 μL Acceptor Mix and 3 μL Donor Mix are added under subdued light and incubated for 2 h at room temperature in the dark, before the signal is measured on a PerkinElmer Envision HTS Multilabel Reader. The raw data were imported into and analyzed with the Boehringer Ingelheim proprietary software MegaLab (curve fitting based on the program PRISM, GraphPad Inc.).

NCI-H358 cells = test: NCI-H358 CTG proliferation assay (120 h) (NSCLC); assay type: cell-based; settings: Homo sapiens
Protocol: NCI-H358 cells (ATCC No. CRL-5807) were dispensed into white bottom opaque 96 well plates (Perkin Elmer cat no. 5680) at a density of 2000 cells per well in 100 μL RPMI-1640 ATCC-Formulation (Gibco #A10491)+10% FCS. Cells were incubated overnight at 37° C. in a humidified tissue culture incubator at 5% CO2. Compounds (10 mM stock in DMSO) were added at logarithmic dose series using the HP Digital Dispenser D300 (Tecan), normalizing for added DMSO. For the T0 time point measurement, untreated cells were analyzed at the time of compound addition. Plates were incubated for 120 hours, and cell viability was measured using CellTiter-Glo luminescent cell viability reagent (Promega product code G7570). Viability (stated as percent of control) is defined as relative luminescence units RLU of each well divided by the RLU of cells in DMSO controls. IC50 values were determined from viability measurements by non-linear regression using a four parameter model.

KRASG12-dependent Ba/F3 cells, sequence (P01116 whole entry G12C): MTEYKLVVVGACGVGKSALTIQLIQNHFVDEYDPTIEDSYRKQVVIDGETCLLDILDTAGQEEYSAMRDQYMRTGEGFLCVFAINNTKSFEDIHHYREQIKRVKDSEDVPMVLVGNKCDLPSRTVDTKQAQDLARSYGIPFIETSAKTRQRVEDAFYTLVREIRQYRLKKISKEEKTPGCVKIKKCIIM

SMILES | GI50 [1] | IC50 ([2]; Table 36) | IC50 [3] | IC50 ([2]; Table 37) | IC50 ([2]; Table 38) | IC50 ([2]; Table 39) | IC50 (NCI-H358 cells)
C=CC(=O)N1CCN(c2cc(-c3noc([C@@]4(C)CCCc5sc(N)c(C#N)c54)n3)nc(OC[C@@H]3CC4(CC4)CN3C)n2)CC1 [Ia-72] | 77.8 nM | 7 nM | 50.9 nM |  |  |  | 
C=CC(=O)N1CCC(Oc2cc(-c3noc(C4(C)CCCc5sc(N)c(C#N)c54)n3)nc(N3CCC4(CCN(C)CC4)CC3)c2)CC1 (stereo not shown) [Ia-78] | 702 nM | 155 nM | 458 nM |  |  |  | 
C=CC(=O)N1CCC(Oc2cc(-c3noc([C@@]4(C)CCCc5sc(N)c(C#N)c54)n3)nc(N3CCN(C)C[C@@H]3C)c2)CC1 [Ia-79] | 7.7 nM | 4 nM | 18.7 nM |  |  |  | 
C=CC(=O)N1CCC(Oc2cc(-c3noc([C@]4(C)CCCc5sc(N)c(C#N)c54)n3)nc(N3CCN(C)C[C@@H]3C)c2)CC1 [Ia-80] | 559 nM | 507 nM | 1150 nM |  |  |  | 
C=CC(=O)N1CC[C@@H](Oc2cc(O[C@@H](C)[C@@H]3CCCN3C)nc(-c3noc([C@@]4(C)CCCc5sc(N)c(C#N)c54)n3)c2)C1 [Ia-81] | 1.9 nM | 1.6 nM | 1.7 nM |  |  |  | 
C=CC(=O)N1CC[C@H](Oc2cc(O[C@@H](C)[C@@H]3CCCN3C)nc(-c3noc([C@@]4(C)CCCc5sc(N)c(C#N)c54)n3)c2)C1 [Ia-82] | 17.3 nM | 2 nM | 7.7 nM |  |  |  | 
C=CC(=O)N1CCN(c2cc(O[C@@H](C)[C@@H]3CCCN3C)nc(-c3noc([C@@]4(C)CCCc5sc(N)c(C#N)c54)n3)c2)CC12CCC2 [Ia-83] | 7.4 nM | 2 nM | 10.2 nM |  |  |  | 
C=CC(=O)N1CCN(c2cc(O[C@@H](C)[C@@H]3CCCN3C)nc(-c3noc([C@@]4(C)CCCc5sc(N)c(C#N)c54)n3)c2)CC12CCCC2 [Ia-84] | 9.9 nM | 3 nM | 11 nM |  |  |  | 
C=CC(=O)N1C[C@H](Oc2cc(O[C@@H](C)[C@@H]3CCCN3C)nc(-c3noc([C@@]4(C)CCCc5sc(N)c(C#N)c54)n3)c2)[C@H]1C [Ia-85] | 0.7 nM | 1.6 nM | 0.7 nM |  |  |  | 
COC/C=C/C(=O)N1CCC(Oc2cc(O[C@@H](C)[C@@H]3CCCN3C)nc(-c3noc([C@@]4(C)CCCc5sc(N)c(C#N)c54)n3)c2)CC1 [Ia-159] | 16.2 nM |  | 12.4 nM | 5 nM |  |  | 
COC/C=C\C(=O)N1CCN(c2cc(O[C@@H](C)[C@@H]3CCCN3C)nc(-c3noc([C@@]4(C)CCCc5sc(N)c(C#N)c54)n3)n2)CC12CC2 [Ia-161] | 162 nM |  | 26.5 nM | 21 nM |  |  | 
CC#CC(=O)N1CCN(c2cc(O[C@@H](C)[C@@H]3CCCN3C)nc(-c3noc([C@@]4(C)CCCc5sc(N)c(C#N)c54)n3)n2)CC12CC2 [Ia-165] | 12.5 nM |  | 4 nM |  | 4 nM |  | 
CC#CC(=O)N1CCN(c2cc(-c3noc([C@@]4(C)CCCc5sc(N)c(C#N)c54)n3)nc(O[C@@H](C)[C@@H]3CCCN3C)n2)C2CCCC21 (stereo partly shown) [Ia-167] | 189 nM |  | 77.2 nM |  | 15 nM |  | 
C=CC(=O)N1CCN(c2nc(=O)n(-c3c(C)ccnc3C(C)C)c3nc(-c4c(O)cccc4F)c(F)cc23)[C@@H](C)C1 [sotorasib, reference compound] |  |  |  |  |  |  | 21 nM

Second part, the compound after the results:

GI50 [1] | IC50 ([2]; Table 36) | IC50 [3] | IC50 ([2]; Table 37) | IC50 ([2]; Table 38) | IC50 ([2]; Table 39) | IC50 (NCI-H358 cells) | SMILES
1310 nM | 515 nM | 1350 nM |  |  |  |  | C=CC(=O)N1CCN(c2cc(-c3noc([C@@]4(C)CCc5sc(N)c(C#N)c54)n3)nc(N[C@@H](C)[C@@H]3CCCN3C)n2)CC1 [Ia-132]
15.4 nM | 3 nM | 5.6 nM |  |  |  |  | C=CC(=O)N1CCN(c2cc(-c3noc(C4(C)CCc5sc(N)c(C#N)c54)n3)nc(O[C@@H](C)[C@@H]3CCCN3C)n2)CC1 (stereo partly shown) [Ia-134]
25.4 nM | 2 nM | 9.6 nM |  |  |  |  | C=CC(=O)N1CCN(c2cc(-c3noc([C@@]4(C)CCCc5sc(N)c(C#N)c54)n3)nc(O[C@@H](C)[C@@H]3CCCN3C3CCN(C)CC3)n2)CC1 [Ia-135]
2 nM | 1.4 nM | 0.9 nM |  |  |  |  | C=CC(=O)N1CCN(c2cc(O[C@@H](C)[C@@H]3CCCN3C)nc(-c3noc([C@@]4(C)CCCc5sc(N)c(C#N)c54)n3)n2)CC1 [Ia-136]
0.5 nM | 1.8 nM | 0.7 nM |  |  |  |  | C=CC(=O)N1CCN(c2cc(-c3noc([C@@]4(C)CCCc5sc(N)c(C#N)c54)n3)nc(O[C@@H](C)[C@@H]3CC[C@H](C)N3C)n2)CC1 [Ia-137]
2.1 nM | 1.5 nM | 1.4 nM |  |  |  |  | C=CC(=O)N1CCN(c2nc(O[C@@H](C)[C@@H]3CCCN3C)nc(-c3noc([C@@]4(C)CCCc5sc(N)c(C#N)c54)n3)n2)CC1 [Ia-139]
271 nM |  | 39.8 nM | 10 nM |  |  |  | C/C=C/C(=O)N1CCN(c2cc(-c3noc([C@@]4(C)CCCc5sc(N)c(C#N)c54)n3)nc(O[C@@H](C)[C@@H]3CCCN3C)n2)CC1 [Ia-155]
1520 nM |  | 238 nM | 16 nM |  |  |  | COC/C=C/C(=O)N1CCN(c2cc(-c3noc([C@@]4(C)CCCc5sc(N)c(C#N)c54)n3)nc(O[C@@H](C)[C@@H]3CCCN3C)n2)CC1 [Ia-157]
467 nM |  | 103 nM | 4 nM |  |  |  | C[C@H](Oc1nc(-c2noc([C@@]3(C)CCCc4sc(N)c(C#N)c43)n2)cc(N2CCN(C(=O)/C=C/CN3CCOCC3)CC2)n1)[C@@H]1CCCN1C [Ia-158]
116 nM |  | 25.3 nM | 11 nM |  |  |  | COC/C=C/C(=O)N1CCN(c2cc(-c3noc([C@@]4(C)CCCc5sc(N)c(C#N)c54)n3)nc(O[C@@H](C)[C@@H]3CCCN3C)n2)CC12CC2 [Ia-160]
431 nM |  | 81.3 nM | 22 nM |  |  |  | C/C=C/C(=O)N1CCN(c2cc(-c3noc([C@@]4(C)CCCc5sc(N)c(C#N)c54)n3)nc(O[C@@H](C)[C@@H]3CCCN3C)n2)CC12CC2 [Ia-163]
13.4 nM |  | 4.2 nM |  | 3 nM |  |  | CC#CC(=O)N1CCN(c2cc(-c3noc([C@@]4(C)CCCc5sc(N)c(C#N)c54)n3)nc(O[C@@H](C)[C@@H]3CCCN3C)n2)CC12CC2 [Ia-166]
7730 nM |  | 1840 nM |  |  | 40 nM |  | C[C@H](Oc1nc(-c2noc([C@@]3(C)CCCc4sc(N)c(C#N)c43)n2)cc(N2CCN(C/C=C/C(=O)N(C)C)CC2)n1)[C@@H]1CCCN1C [Ia-169]
